Results taken from patent US8349846B2, “Fused pyrimidine derivatives as TRPV3 modulators” (Glenmark Pharmaceuticals, S.A., priority 2008, dated 2013).
Structures can show the parent of a compound that is named as a salt.

Target: T1, Human TRPV3 (Homo sapiens, UniProt Q8NET8)
T1 construct: expressed in transfected cells; host or cells: CHO cells (selected with G-418)
T1 sequence (Q8NET8 1-790): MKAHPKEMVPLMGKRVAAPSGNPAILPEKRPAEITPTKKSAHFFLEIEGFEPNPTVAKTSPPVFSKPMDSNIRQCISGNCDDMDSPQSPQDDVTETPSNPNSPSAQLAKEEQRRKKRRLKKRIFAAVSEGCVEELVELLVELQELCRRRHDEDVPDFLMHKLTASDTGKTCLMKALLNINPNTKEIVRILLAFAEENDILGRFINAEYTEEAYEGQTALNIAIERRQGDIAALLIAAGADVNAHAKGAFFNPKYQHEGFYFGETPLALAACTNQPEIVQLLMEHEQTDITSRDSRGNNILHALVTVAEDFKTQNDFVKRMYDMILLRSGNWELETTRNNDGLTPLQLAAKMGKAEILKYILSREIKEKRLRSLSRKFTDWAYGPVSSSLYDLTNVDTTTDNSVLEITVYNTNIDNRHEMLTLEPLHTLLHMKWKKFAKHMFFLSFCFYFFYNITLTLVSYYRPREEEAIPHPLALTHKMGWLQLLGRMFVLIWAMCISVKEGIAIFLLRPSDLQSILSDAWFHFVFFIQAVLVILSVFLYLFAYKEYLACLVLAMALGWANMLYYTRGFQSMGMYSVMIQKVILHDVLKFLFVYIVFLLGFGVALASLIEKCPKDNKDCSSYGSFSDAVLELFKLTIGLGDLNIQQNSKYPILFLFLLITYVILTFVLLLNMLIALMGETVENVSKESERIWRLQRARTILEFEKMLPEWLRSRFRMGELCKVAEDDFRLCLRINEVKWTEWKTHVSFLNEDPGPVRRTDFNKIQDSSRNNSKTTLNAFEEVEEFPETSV
Assay: Screening for TRPV3 antagonist using the 45Calcium uptake assay (inhibition of 2-APB induced cellular uptake of radioactive calcium)
Assay type: cell-based
Details: Human TRPV3 expressing CHO cells, 2-APB 500 μM; for inhibition at 1 µM / inhibition at 10 µM: CHO; for inhibition at 1 µM / Percentage inhibition at 1.0 μM: 1.0 μM test compound; for inhibition at 1 µM: read-out: Percentage inhibition at 1.0 μM; for inhibition at 10 µM: read-out: Percentage inhibition at 10.0 μM
Source text: The illustrative examples of the present invention are screened for TRPV3 activity according to a modified procedure described in Tóth, A., Kedei, N., Wang, Y. and Blumberg, P. M. Life Sciences (2003), 73, 487-498. The screening of the compounds can be carried out by other methods and procedures known to a person skilled in the art. Such screening methods may be found in (a) Hu, H.-Z. et al. J. Biol. Chem. (2004), 279, 35741-35747; (b) Smith, G. D. et al. Nature (2002), 418, 186-190; (c) Peier, A. M. et al. Science (2002), 296, 2046-2049.
Screening for TRPV3 Antagonist Using the ^45Calcium Uptake Assay:
The inhibition of TRPV3 receptor activation was followed as inhibition of 2-aminoethxydiphenylborate (2-APB) induced cellular uptake of radioactive calcium. Test compounds were dissolved in dimethyl sulfoxide (DMSO) to prepare 20 mM stock solution and then diluted using plain medium with DMEM/F-12 containing 1.8 mM CaCl2 to get desired concentration. Final concentration of DMSO in the reaction was 0.5% (v/v). Human TRPV3 expressing CHO cells were grown in DMEM/F-12 medium with 10% FBS, 1% penicillin-streptomycin solution, 400 μg/ml of G-418. Cells were seeded 24 h prior to the assay in 96 well plates so as to get ˜50,000 cells per well on the day of experiment. Cells were treated with test compounds for 10 minutes followed by addition of 2-APB at a final concentration of 500 μM and 5 μCi/ml ^45Ca^+2 for 4 minutes. Cells were washed and lysed using buffer containing 1% Triton X-100, 0.1% deoxycholate and 0.1% SDS. Radioactivity in the lysate was measured in Packardt Top count after addition of liquid scintillant. Concentration response curves were plotted as a % of maximal response obtained in the absence of test antagonist. IC50 value was calculated from concentration response curve by nonlinear regression analysis using GraphPad PRISM software.
Percentage inhibition at concentrations of 1.0 μM and 10.0 μM are given in the table along with IC50 (nM) values for selected examples.

SMILES | inhibition at 1 µM [%] | inhibition at 10 µM (10.0 μM test compound) [%] | IC50 [nM] | Percentage inhibition at 1.0 μM [%] | Percentage inhibition at 10.0 μM (10.0 μM test compound) [%]
COc1cccc(/C=C/c2nc3ccccn3c(=O)c2-c2ccc(NC(C)=O)cc2)c1OC1CCCC1 [Example 32, N-(4-{2-[(E)-2-(2-Cyclopentyloxy-3-methoxy)phenylvinyl]-4-Oxo-4H-pyrido[1,2-a]pyrimidin-3-yl}phenyl)acetamide] | 34.2 | 89.6 |  |  | 
O=c1c(-c2ccc(C(F)(F)F)cc2)c(/C=C/c2cccnc2)nc2ccccn12 [Example 2, 2-{(E)-2-(Pyridin-3-yl)vinyl}-3-(4-trifluoromethyl)phenyl-4H-pyrido[1,2-a]pyrimidin-4-one] | 5.7 | 11.2 |  |  | 
COc1cccc(/C=C/c2nc3ccccn3c(=O)c2-c2ccc(C(F)(F)F)cc2)c1OCCN(C)C [Example 15, 2-[(E)-2-{2-[2-(Dimethylamino)ethoxy]-3-methoxyphenyl}vinyl]-3-(4-trifluoromethylphenyl)-4H-pyrido[1,2-a]pyrimidin-4-one hydrochloride] | 0 | 31.7 |  |  | 
CCCCCOc1c(/C=C/c2nc3ccccn3c(=O)c2-c2ccc(C(F)(F)F)cc2)cccc1OC [Example 11] | 69 | 86.5 |  |  | 
COc1cccc(/C=C/c2nc3ccccn3c(=O)c2-c2ccccc2)c1OC1CCCC1 [Example 20, 2-{(E)-2-[2-(Cyclopentyloxy)-3-methoxyphenyl]vinyl}-3-phenyl-4H-pyrido[1,2-a]-pyrimidin-4-one] | 45.9 | 76.7 | 1000 to 2500 |  | 
COc1cccc(/C=C/c2nc3ccccn3c(=O)c2-c2ccc(SC)cc2)c1OC1CCCC1 [Example 34, 2-{(E)-2-[(2-Cyclopentyloxy-3-methoxy)phenyl]vinyl}-3-(4-thiomethyl)phenyl-4H-pyrido[1,2-a]pyrimidin-4-one] | 36.8 | 51.3 |  |  | 
COc1cccc(/C=C/c2nc3ccccn3c(=O)c2-c2ccc(C#N)cc2)c1OCC1CC1 [Example 19] | 87.8 | 98.7 | < 500 |  | 
COc1cccc(/C=C/c2nc3ccccn3c(=O)c2-c2ccc(OC(F)(F)F)cc2)c1OC1CCCC1 [Example 24, 2-{(E)-2-[(2-Cyclopentyloxy-3-methoxy)phenyl]vinyl}-3-(4-trifluoromethoxy)phenyl-4H-pyrido[1,2-a]pyrimidin-4-one] | 20.6 | 3.6 | 1000 to 2500 |  | 
COc1cccc(/C=C/c2nc3ccccn3c(=O)c2-c2ccc([N+](=O)[O-])cc2)c1OC1CCCC1 [Example 30, 2-{(E)-2-[(2-Cyclopentyloxy)-3-methoxyphenyl]vinyl}-3-(4-nitro)phenyl-4H-pyrido[1,2-a]pyrimidin-4-one] | 52 | 76.4 |  |  | 
COc1cccc(/C=C/c2nc3ccccn3c(=O)c2-c2ccc(C#N)cc2)c1OC1CCCC1 [Example 28, 4-{2-[(E)-2-(2-Cyclopentyloxy-3-methoxyphenyl)vinyl]-4-oxo-4H-pyrido[1,2-a]-pyrimidin-3-yl}benzonitrile] |  |  | < 500 | 83.5 | 94.7
COc1cccc(/C=C/c2nc3ccccn3c(=O)c2-c2ccc(C#N)cc2)c1OC1CCCC1 [Example 5, 4-{2-[(E)-2-[2-(Cyclopentyloxy)-3-methoxyphenyl)vinyl]-4-oxo-4H-pyrido[1,2-a]pyrimidin-3-yl}benzonitrile] |  | 76.2 |  | 41.6 | 
COc1cccc(/C=C/c2nc3ccc(Cl)cn3c(=O)c2-c2ccc(C#N)cc2)c1OC1CCCC1 [Example 43, 4-{7-Chloro-2-[(E)-2-(2-cyclopentyloxy-3-methoxy)phenylvinyl]-4-oxo-4H-pyrido[1,2-a]pyrimidin-3-yl}benzonitrile] | 78.7 | 90.2 | < 500 |  | 
COc1cccc(/C=C/c2nc3ccccn3c(=O)c2-c2cc(F)cc(F)c2)c1OC1CCCC1 [Example 21, 2-{(E)-2-[2-(Cyclopentyloxy-3-methoxy)phenyl]vinyl}-3-(3,5-difluoro) phenyl-4H-pyrido[1,2-a]pyrimidin-4-one] | 27.2 | 39.3 |  |  | 
COc1cccc(/C=C/c2nc3ccccn3c(=O)c2-c2cccc(C(F)(F)F)c2)c1OC1CCCC1 [Example 22, 2-{(E)-2-[(2-Cyclopentyloxy-3-methoxy)phenyl]vinyl}-3-(3-trifluoromethyl)phenyl-4H-pyrido[1,2-a]pyrimidin-4-one] | 22.7 | 34.6 |  |  | 
COc1cccc(/C=C/c2nc3ccccn3c(=O)c2-c2ccc3c(c2)OCO3)c1OC1CCCC1 [Example 37, 3-(1,3-Benzodioxol-5-yl)-2-[(E)-2-(2-cyclopentyloxy-3-methoxy)phenylvinyl]-4H-pyrido[1,2-a]pyrimidin-4-one] | 70.1 | 91.4 |  |  | 
CCCCCOc1c(/C=C/c2nc3ccccn3c(=O)c2-c2ccc(C#N)cc2)cccc1OC [Example 12, 4-{2-[(E)-2-[3-Methoxy-2-pentyloxyphenyl)vinyl]-4-oxo-4H-pyrido[1,2-a]pyrimidin-3-yl}benzonitrile] | 87.9 | 96.5 | < 500 |  | 
COc1cccc(/C=C/c2nc3ccccn3c(=O)c2-c2cccc(OC(C)C)c2)c1OC1CCCC1 [Example 27, 3-(3-Isopropoxyphenyl)-2-[(E)-2-(2-cyclopentyloxy-3-methoxy)phenylvinyl]-4H-pyrido-[1,2-a]pyrimidin-4-one] | 54.2 | 77.6 | 1000 to 2500 |  | 
